Measurements reported in patent US11390616B2 (BRISTOL-MYERS SQUIBB COMPANY, priority 2015, dated 2022).

Biological target: T1, human APJ receptor (Homo sapiens, UniProt P35414)
T1 construct: expressed in transfected cells; host or cells: HEK293
T1 sequence (P35414 1-380): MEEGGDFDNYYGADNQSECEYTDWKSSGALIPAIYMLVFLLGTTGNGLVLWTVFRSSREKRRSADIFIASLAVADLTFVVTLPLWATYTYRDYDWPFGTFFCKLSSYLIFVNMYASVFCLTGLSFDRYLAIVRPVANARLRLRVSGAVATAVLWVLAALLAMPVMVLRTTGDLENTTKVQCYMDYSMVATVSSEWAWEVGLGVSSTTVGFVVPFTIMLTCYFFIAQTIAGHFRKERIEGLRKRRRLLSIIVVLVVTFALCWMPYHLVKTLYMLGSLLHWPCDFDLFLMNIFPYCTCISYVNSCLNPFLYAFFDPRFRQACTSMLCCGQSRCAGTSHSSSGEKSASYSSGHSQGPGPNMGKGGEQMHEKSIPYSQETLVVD
Experiment: Intracellular cAMP accumulation assay (APJ hcAMP, HTRF)
Assay type: cell-based
Settings: HEK293 cells stably expressing human APJ receptor; inhibition of forskolin-mediated cAMP production; read-out: APJ cAMP Potency range
Outline: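 HEK293 cells stably expressing the receptor (5,000/well) treated with compound plus […] and 2 μM forskolin for 30 min at room temperature; cAMP by HTRF against a cAMP standard curve. EC50 from variable-slope sigmoidal fit; Ymax as % of (Pyr1)apelin-13 inhibition.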

Structure (SMILES) | EC50
CCc1cccc(CC)c1-n1c(-c2ccn(C)n2)nc(=O)c(Cc2ccc(-c3ccnc(F)c3C)cc2F)c1O [Example 86, 1-(2,6-diethylphenyl)-5-{[2-fluoro-4-(2-fluoro-3-methylpyridin-4-yl)phenyl]methyl}-6-hydroxy-2-(1-methyl-1H-pyrazol-3-yl)-1,4-dihydropyrimidin-4-one] | 0.01 to 10 nM
CCCCc1nc(=O)c(Cc2ccc(-c3cccnc3C)cc2)c(O)n1[C@@H](CC)c1cccc(C#N)c1 [Example 96, 3-[(1S)-1-(2-butyl-6-hydroxy-5-{[4-(2-methylpyridin-3-yl)phenyl]methyl}-4-oxo-1,4-dihydropyrimidin-1-yl)propyl]benzonitrile] | 0.01 to 10 nM
CCCCc1nc(=O)c(Cc2ccc(-c3ccc(F)nc3)cc2)c(O)n1[C@@H](CC)c1cccc(C#N)c1 [Example 97, 3-[(1S)-1-(2-butyl-5-{[4-(6-fluoropyridin-3-yl)phenyl]methyl}-6-hydroxy-4-oxo-1,4-dihydropyrimidin-1-yl)propyl]benzonitrile] | 0.01 to 10 nM
CCCCc1nc(=O)c(Cc2ccc(-c3ccncc3C)cc2)c(O)n1[C@@H](CC)c1cccc(C#N)c1 [Example 98, 3-[(1S)-1-(2-butyl-6-hydroxy-5-{[4-(3-methylpyridin-4-yl)phenyl]methyl}-4-oxo-1,4-dihydropyrimidin-1-yl)propyl]benzonitrile] | 0.01 to 10 nM
CCCCc1nc(=O)c(Cc2ccc(-c3ccnc(F)c3C)cc2)c(O)n1[C@@H](CC)c1cccc(C#N)c1 [Example 99, 3-[(1S)-1-(2-butyl-5-{[4-(2-fluoro-3-methylpyridin-4-yl)phenyl]methyl}-6-hydroxy-4-oxo-1,4-dihydropyrimidin-1-yl)propyl]benzonitrile] | 0.01 to 10 nM
CCCCc1nc(=O)c(Cc2ccc(-n3cc(Cl)ccc3=O)cc2)c(O)n1[C@@H](CC)c1cccc(C#N)c1 [Example 100, 3-[(1S)-1-(2-butyl-5-{[4-(5-chloro-2-oxo-1,2-dihydropyridin-1-yl)phenyl]methyl}-6-hydroxy-4-oxo-1-4-dihydropyrimidin-1-yl)propyl]benzonitrile] | 0.01 to 10 nM
CCCCc1nc(=O)c(Cc2ccc(C3CC3)cc2)c(O)n1[C@@H](CC)c1cccc(C#N)c1 [Example 101, 3-[(1S)-1-{2-butyl-5-[(4-cyclopropylphenyl)methyl]-6-hydroxy-4-oxo-1,4-dihydropyrimidin-1-yl}propyl]benzonitrile] | 0.01 to 10 nM
CCCCc1nc(=O)c(Cc2ccc(C3CC3)cc2)c(O)n1[C@@H](CC)c1cccc(C#N)c1 [Example 102, 3-[(1S)-1-{2-butyl-5-[(4-cyclopropylphenyl)methyl]-6-hydroxy-4-oxo-1,4-dihydropyrimidin-1-yl}propyl]benzonitrile] | 10 to 100 nM
CCCCc1nc(=O)c(Cc2ccc(-c3ccnc(F)c3C)cc2)c(O)n1[C@@H](CC)c1cccc(F)c1 [Example 103, 2-butyl-5-{[4-(2-fluoro-3-methylpyridin-4-yl)phenyl]methyl}-1-[(1S)-1-(3-fluorophenyl)propyl]-6-hydroxy-1,4-dihydropyrimidin-4-one] | 0.01 to 10 nM
CCCCc1nc(=O)c(Cc2ccc(-c3ccc(F)nc3C)cc2)c(O)n1[C@@H](CC)c1cccc(F)c1 [Example 104, 2-butyl-5-{[4-(6-fluoro-2-methylpyridin-3-yl)phenyl]methyl}-1-[(1S)-1-(3-fluorophenyl)propyl]-6-hydroxy-1,4-dihydropyrimidin-4-one] | 0.01 to 10 nM
CCCCc1nc(=O)c(Cc2ccc(-c3cccnc3C)cc2)c(O)n1[C@@H](CC)c1cccc(F)c1 [Example 105, 2-butyl-1-[(1S)-1-(3-fluorophenyl)propyl]-6-hydroxy-5-{[4-(2-methylpyridin-3-yl)phenyl]methyl}-1,4-dihydropyrimidin-4-one] | 0.01 to 10 nM
CCCCc1nc(=O)c(Cc2ccc(-c3ccncc3C)cc2)c(O)n1[C@@H](CC)c1cccc(F)c1 [Example 106, 2-butyl-1-[(1S)-1-(3-fluorophenyl)propyl]-6-hydroxy-5-{[4-(3-methylpyridin-4-yl)phenyl]methyl}-1,4-dihydropyrimidin-4-one] | 0.01 to 10 nM
CC[C@@H](c1cc(F)cc(F)c1)n1c(CCC2CC2)nc(=O)c(Cc2ccc(-c3ccc(F)nc3C)cc2)c1O [Example 107, 2-(2-cyclopropylethyl)-1-[(1S)-1-(3,5-difluorophenyl)propyl]-5-{[4-(6-fluoro-2-methylpyridin-3-yl)phenyl]methyl}-6-hydroxy-1,4-dihydropyrimidin-4-one] | 0.01 to 10 nM
CC[C@@H](c1cc(F)cc(F)c1)n1c(COC(C)C)nc(=O)c(Cc2ccc(-c3ccnc(F)c3C)cc2)c1O [Example 108, 1-[(1S)-1-(3,5-difluorophenyl)propyl]-5-{[4-(2-fluoro-3-methylpyridin-4-yl)phenyl]methyl}-6-hydroxy-2-[(propan-2-yloxy)methyl]-1,4-dihydropyrimidin-4-one] | 0.01 to 10 nM

Next, values leading:

EC50 | Structure (SMILES)
0.01 to 10 nM | CCc1cccc(CC)c1-n1c(-c2ccn(C(C)C)n2)nc(=O)c(Cc2ccc(-c3ccc(F)cc3C(N)=O)c(F)c2)c1O [Example 84, 4′-{[1-(2,6-diethylphenyl)-6-hydroxy-4-oxo-2-[1-(propan-2-yl)-1H-pyrazol-3-yl]-1,4-dihydropyrimidin-5-yl]methyl}-2′,4-difluoro-[1,1′-biphenyl]-2-carboxamide]
0.01 to 10 nM | CCc1cccc(CC)c1-n1c(-c2ccn(C(C)C)n2)nc(=O)c(Cc2ccc(-c3ccnc(F)c3C)c(F)c2)c1O [Example 85, 1-(2,6-diethylphenyl)-5-{[3-fluoro-4-(2-fluoro-3-methylpyridin-4-yl)phenyl]methyl}-6-hydroxy-2-[1-(propan-2-yl)-1H-pyrazol-3-yl]-1,4-dihydropyrimidin-4-one]
0.01 to 10 nM | CCc1cccc(CC)c1-n1c(-c2ccn(C(C)C)n2)nc(=O)c(Cc2ccc(-c3cccn(C)c3=O)c(F)c2)c1O [Example 87, 1-(2,6-diethylphenyl)-5-{[3-fluoro-4-(1-methyl-2-oxo-1,2-dihydropyridin-3-yl)phenyl]methyl}-6-hydroxy-2-[1-(propan-2-yl)-1H-pyrazol-3-yl]-1,4-dihydropyrimidin-4-one]
0.01 to 10 nM | CCc1cccc(CC)c1-n1c(-c2ccn(C)n2)nc(=O)c(Cc2ccc(-c3cccn(C)c3=O)cc2F)c1O [Example 88, 1-(2,6-diethylphenyl)-5-{[2-fluoro-4-(1-methyl-2-oxo-1,2-dihydropyridin-3-yl)phenyl]methyl}-6-hydroxy-2-(1-methyl-1H-pyrazol-3-yl)-1,4-dihydropyrimidin-4-one]
0.01 to 10 nM | CCc1cccc(CC)c1-n1c(-c2ccn(C)n2)nc(=O)c(Cc2ccc(-c3ccc(F)cc3C(N)=O)cc2F)c1O [Example 89, 4′-{[1-(2,6-diethylphenyl)-6-hydroxy-2-(1-methyl-1H-pyrazol-3-yl)-4-oxo-1,4-dihydropyrimidin-5-yl]methyl}-3′,4-difluoro-[1,1′-biphenyl]-2-carboxamide]
100 to 300 nM | CCc1cccc(CC)c1-n1c(-c2ccn(CC(C)C)n2)nc(=O)c(Cc2ccc(-c3cccn(C)c3=O)c(F)c2)c1O [Example 90, 1-(2,6-diethylphenyl)-5-{[3-fluoro-4-(1-methyl-2-oxo-1,2-dihydropyridin-3-yl)phenyl]methyl}-6-hydroxy-2-[1-(2-methylpropyl)-1H-pyrazol-3-yl]-1,4-dihydropyrimidin-4-one]
100 to 300 nM | CCc1cccc(CC)c1-n1c(-c2ccn(CC(C)C)n2)nc(=O)c(Cc2ccc(-c3ccnc(F)c3C)c(F)c2)c1O [Example 91, 1-(2,6-diethylphenyl)-5-{[3-fluoro-4-(2-fluoro-3-methylpyridin-4-yl)phenyl]methyl}-6-hydroxy-2-[1-(2-methylpropyl)-1H-pyrazol-3-yl]-1,4-dihydropyrimidin-4-one]
10 to 100 nM | CCc1cccc(CC)c1-n1c(-c2ccn(CC(C)C)n2)nc(=O)c(Cc2ccc(-c3ccc(F)cc3C(N)=O)c(F)c2)c1O [Example 92, 4′-{[1-(2,6-diethylphenyl)-6-hydroxy-2-[1-(2-methylpropyl)-1H-pyrazol-3-yl]-4-oxo-1,4-dihydropyrimidin-5-yl]methyl}-2′,4-difluoro-[1,1′-biphenyl]-2-carboxamide]
0.01 to 10 nM | CCc1cccc(CC)c1-n1c(-c2ccn(C3CC3)n2)nc(=O)c(Cc2ccc(-c3cccn(C)c3=O)c(F)c2)c1O [Example 93, 2-(1-cyclopropyl-1H-pyrazol-3-yl)-1-(2,6-diethylphenyl)-5-{[3-fluoro-4-(1-methyl-2-oxo-1,2-dihydropyridin-3-yl)phenyl]methyl}-6-hydroxy-1,4-dihydropyrimidin-4-one]
0.01 to 10 nM | CCc1cccc(CC)c1-n1c(-c2ccn(C3CC3)n2)nc(=O)c(Cc2ccc(-c3ccc(F)cc3C(N)=O)c(F)c2)c1O [Example 94, 4′-{[2-(1-cyclopropyl-1H-pyrazol-3-yl)-1-(2,6-diethylphenyl)-6-hydroxy-4-oxo-1,4-dihydropyrimidin-5-yl]methyl}-2′,4-difluoro-[1,1′-biphenyl]-2-carboxamide]

Same assay, conditions: HEK293 cells stably expressing human APJ receptor; inhibition of forskolin-mediated cAMP production; read-out: Human APJ cAMP EC50 potency range

EC50 | Structure (SMILES)
0.01 to 10 nM | CCCCc1nc(=O)c(Cc2ccc(-c3ccc(F)nc3C)cc2)c(O)n1[C@@H](CC)c1cccc(C#N)c1 [Example 95, (S)-3-(1-(2-butyl-5-(4-(6-fluoro-2-methylpyridin-3-yl)benzyl)-6-hydroxy-4-oxopyrimidin-1(4H)-yl)propyl)benzonitrile]
